# Test results published in patent US11718612B2, “Inhibitors of receptor interacting protein kinase I for the treatment of disease” (Board of Regents, The University of Texas System, priority 2019, dated 2023).
# How the values were obtained:
# RIPK1 = RIPK1 (Homo sapiens (Human), UniProt Q13546); assay: ADP-Glo kinase assay, RIPK1 activity; assay type: biochemical; conditions: 5 nM RIPK1, 50 μM ATP, 6 hr reaction
# Method: In order to measure RIPK1 activity the ADP-Glo kinase assay (Promega, Catalog #V7002) was used to measure the conversion of ATP to ADP. This enzymatic assay was performed in a 384-well white, Optiplate (Perkin Elmer, Catalog #6007299) with assay buffer consisting of 50 mM HEPES pH 7.5 (Gibco, Catalog #15630-080), 50 mM NaCl (Teknova, Catalog #S0252), 30 mM MgCl2 (Ambion, Catalog #AM9530G), 1 mM DTT (Santa Cruz Biotechnology, Catalog #sc-29089), 0.05% BSA (Sigma, Catalog #A3059-50G) and 0.02% CHAPS (Sigma, Catalog #C5070-5G). Stock solutions of the test compounds were prepared in 100% DMSO (Sigma, Catalog #D2650) and serially diluted 1:3 using 100% DMSO. Compounds were additionally diluted 1:40 in assay buffer, and 2 μL/well were transferred to the assay plate. 4 μL/well (final concentration of 5 nM) of RIPK1 protein (SignalChem, Catalog #R07-11G-05) diluted in assay buffer and added to the assay plate followed by a 10 minute preincutation at room temperature. 4 μL/well of ATP (Promega, Catalog #V7002) (final concentration of 50 μM) diluted in assay buffer were then added to the assay plate followed by a 6 hr reaction time. Final concentrations of RIPK1 and ATP refer to a 10 μL volume. Luminescence was measured using a BioTek Synergy™ NEO plate reader. IC50 values were calculated using a four-parameter logistic curve fit using Genedata Screener software.
# U937 cells = assay: Human U937 cellular necroptosis assay; assay type: cell-based; conditions: U-937; U937 cells stimulated with 25 ng/mL human TNFalpha and 25 μM z-VAD-FMK; 22 hr; Cell Titer-Glo viability
# Sequence of RIPK1 (Q13546 1-327): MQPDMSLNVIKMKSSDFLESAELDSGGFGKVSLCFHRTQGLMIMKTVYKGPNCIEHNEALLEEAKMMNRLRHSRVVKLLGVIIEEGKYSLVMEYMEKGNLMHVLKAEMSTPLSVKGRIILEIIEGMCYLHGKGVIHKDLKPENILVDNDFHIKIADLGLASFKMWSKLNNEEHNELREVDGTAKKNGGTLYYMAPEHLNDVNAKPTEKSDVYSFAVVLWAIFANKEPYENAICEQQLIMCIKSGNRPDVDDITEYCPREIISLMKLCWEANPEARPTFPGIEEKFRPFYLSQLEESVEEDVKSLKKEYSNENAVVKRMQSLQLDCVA
Structure (SMILES),IC50 (RIPK1),IC50 (U937 cells)
"O=C(Nc1cccc(Cl)c1F)c1ncn(Cc2ccccc2)n1 [Example 27, 1-benzyl-N-(3-chloro-2-fluorophenyl)-1H-1,2,4-triazole-3-carboxamide]",30.6 nM,851 nM
"O=C(Nc1ccc(F)c(Cl)c1F)c1ncn(Cc2ccccc2)n1 [Example 28, 1-benzyl-N-(3-chloro-2,4-difluorophenyl)-1H-1,2,4-triazole-3-carboxamide]",40.3 nM,1470 nM
"N#Cc1cccc(Cn2cnc(C(=O)Nc3cccc(Cl)c3F)n2)c1 [Example 29, N-(3-chloro-2-fluorophenyl)-1-(3-cyanobenzyl)-1H-1,2,4-triazole-3-carboxamide]",34.1 nM,356 nM
"COc1ccc(NC(=O)c2ncn(Cc3ccccc3)n2)c(F)c1Cl [Example 30, 1-benzyl-N-(3-chloro-2-fluoro-4-methoxy-phenyl)-1H-1,2,4-triazole-3-carboxamide]",110 nM,1490 nM
"O=C(Nc1ccc(O)c(Cl)c1F)c1ncn(Cc2ccccc2)n1 [Example 31, 1-benzyl-N-(3-chloro-2-fluoro-4-hydroxy-phenyl)-1H-1,2,4-triazole-3-carboxamide]",160 nM,1700 nM
"O=C(Nc1cccc(Cl)c1F)c1ncn(Cc2cnccn2)n1 [Example 32, N-(3-chloro-2-fluoro-phenyl)-1-(pyrazin-2-ylmethyl)-1H-1,2,4-triazole-3-carboxamide]",257 nM,1920 nM
"N#Cc1ccc(Cn2cnc(C(=O)Nc3cccc(Cl)c3F)n2)cc1 [Example 33, N-(3-chloro-2-fluoro-phenyl)-1-(4-cyano-benzyl)-1H-1,2,4-triazole-3-carboxamide]",389 nM,5420 nM
"N#Cc1cc(Cl)c(F)c(NC(=O)c2ncn(Cc3ccccc3)n2)c1 [Example 35, 1-benzyl-N-(3-chloro-5-cyano-2-fluorophenyl)-1H-1,2,4-triazole-3-carboxamide]",703 nM,7290 nM
"Cn1cc(-c2cc(Cl)c(F)c(NC(=O)c3ncn(Cc4ccccc4)n3)c2)cn1 [Example 36, 1-benzyl-N-(3-chloro-2-fluoro-5-(1-methyl-1H-pyrazol-4-yl)phenyl)-1H-1,2,4-triazole-3-carboxamide]",804 nM,10000 nM
"O=C(Nc1cccc(Cl)c1F)c1nc2n(n1)[C@H](c1ccccc1)C[C@@H]2F [Example 47, (5S,7S)—N-(3-chloro-2-fluorophenyl)-7-fluoro-5-phenyl-6,7-dihydro-5H-pyrrolo[1,2-b][1,2,4]triazole-2-carboxamide]",48.4 nM,24.8 nM
"O=C1c2nn(Cc3cc(F)ccc3F)c(Cl)c2CCN1c1cccc(Cl)c1F [Example 50, 3-Chloro-6-(3-chloro-2-fluorophenyl)-2-(2,5-difluorobenzyl)-5,6-dihydro-2H-pyrazolo[3,4-c]pyridin-7(4H)-one]",18.6 nM,42.5 nM
"O=C(Nc1ccc(OC(F)(F)F)cc1F)c1ncn(Cc2ccccc2)n1 [Example 51, 1-benzyl-N-(2-fluoro-4-(trifluoromethoxy)-phenyl)-1H-1,2,4-triazole-3-carboxamide]",807 nM,8240 nM
"Cc1nc(C(=O)Nc2ccc(OC(F)(F)F)cc2)nn1Cc1ccccc1 [Example 52, 1-benzyl-5-methyl-N-(4-(trifluoromethoxy)-phenyl)-1H-1,2,4-triazole-3-carboxamide]",4620 nM,> 10000 nM
"O=C1c2nn(Cc3cncc(F)c3)c(Cl)c2CCN1c1cccc(Cl)c1F [Example 54, 3-Chloro-6-(3-chloro-2-fluorophenyl)-2-((5-fluoropyridin-3-yl)methyl)-5,6-dihydro-2H-pyrazolo[3,4-c]pyridin-7(4H)-one]",131 nM,128 nM
"COc1c2c(nn1Cc1cc(F)ccc1F)C(=O)N(c1cccc(Cl)c1F)CC2 [Example 57, 6-(3-Chloro-2-fluorophenyl)-2-(2,5-difluorobenzyl)-3-methoxy-5,6-dihydro-2H-pyrazolo[3,4-c]pyridin-7(4H)-one]",22 nM,115 nM
"NC(=O)c1cccc(Cn2nc3c(c2Cl)CCN(c2cccc(Cl)c2F)C3=O)c1 [Example 75, 3-((3-chloro-6-(3-chloro-2-fluorophenyl)-7-oxo-4,5,6,7-tetrahydro-2H-pyrazolo[3,4-c]pyridin-2-yl)methyl)benzamide]",297 nM,1160 nM
"Cc1ccc(Cn2cnc(C(=O)Nc3cccc(Cl)c3F)n2)cc1 [Example 86, N-(3-chloro-2-fluorophenyl)-1-(4-methylbenzyl)-1H-1,2,4-triazole-3-carboxamide]",564 nM,2080 nM
"Cc1ccc(Cn2cnc(C(=O)Nc3cccc(Cl)c3F)n2)cc1F [Example 87, N-(3-chloro-2-fluorophenyl)-1-(3-fluoro-4-methylbenzyl)-1H-1,2,4-triazole-3-carboxamide]",32.2 nM,4300 nM
"O=C(Nc1cccc(Cl)c1F)c1ncn(Cc2cccc(F)c2)n1 [Example 88, N-(3-chloro-2-fluorophenyl)-1-(3-fluorobenzyl)-1H-1,2,4-triazole-3-carboxamide]",36.3 nM,872 nM
"O=C(Nc1cccc(Cl)c1F)c1ncn(Cc2ccc(F)cn2)n1 [Example 89, N-(3-chloro-2-fluorophenyl)-1-((5-fluoropyridin-2-yl)methyl)-1H-1,2,4-triazole-3-carboxamide]",1600 nM,5580 nM
Cc1ccc(Cn2cnc(C(=O)Nc3cccc(Cl)c3F)n2)cn1 [Example 90],1460 nM,2600 nM
"O=C(Nc1cccc2nn[nH]c12)c1ncn(Cc2ccccc2)n1 [Example 100, N-(1H-benzo[d][1,2,3]triazol-7-yl)-1-benzyl-1H-1,2,4-triazole-3-carboxamide]",685 nM,4140 nM
"O=C1c2nn(Cc3cc(F)ccc3F)c(Br)c2CCN1c1cccc(Cl)c1F [Example 101, 3-Bromo-6-(3-chloro-2-fluorophenyl)-2-(2,5-difluorobenzyl)-2,4,5,6-tetrahydro-7H-pyrazolo[3,4-c]pyridin-7-one]",17.4 nM,16.2 nM
"O=C(Nc1cccc(Cl)c1F)c1ncn(Cc2ncccc2F)n1 [Example 102, N-(3-chloro-2-fluorophenyl)-1-((3-fluoropyridin-2-yl)methyl)-1H-1,2,4-triazole-3-carboxamide]",195 nM,1260 nM
